Test results published in ChEMBL document CHEMBL1201862, “PubChem BioAssay data set” (2004).
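Briefly, cells in 96-well plates were exposed to five compound concentrations for 48 h, and endpoints were estimated by linear interpolation. At the GI50, growth is halved.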 Calls of active or inactive are those of the source. Rule as the data show it: active = GI50 up to about 1.1 µM and inactive = higher.

Assays:
Test in all cases: growth of human tumour cells (NCI), 48 h
[1] = system: OVCAR-4
[2] = system: M14
[3] = system: Malme-3M
[4] = system: CCRF-CEM
[5] = system: SN12C
[6] = system: NCI/ADR-RES
[7] = system: NCI-H522
[8] = system: MOLT-4
[9] = system: MDA-MB-435
[10] = system: A498
[11] = system: KM12
[12] = system: MDA-N
[13] = system: HL-60
[14] = system: OVCAR-8
[15] = system: NCI-H226
[16] = system: OVCAR-5
[17] = system: HOP-92
[18] = system: HT-29
[19] = system: HCT-15
[20] = system: RXF 393
[21] = system: SK-MEL-2
[22] = system: COLO 205
[23] = system: SF-268
[24] = system: PC-3
[25] = system: SF-539
[26] = system: NCI-H23
[27] = system: BT-549
[28] = system: U-251
[29] = system: CAKI-1
[30] = system: SF-295
[31] = system: MCF7
[32] = system: EKVX
[33] = system: T47D
[34] = system: HCT-116
[35] = system: K562
[36] = system: LOX IMVI
[37] = system: UACC-62
[38] = system: IGROV-1
[39] = system: Hs-578T
[40] = system: HOP-62
[41] = system: SK-OV-3
[42] = system: MDA-MB-231
[43] = system: SNB-19
[44] = system: SK-MEL-28
[45] = system: ACHN
[46] = system: UO-31
[47] = system: A549
[48] = system: DU-145
[49] = system: UACC-257
[50] = system: SW-620
[51] = system: 786-0
[52] = system: SK-MEL-5
[53] = system: NCI-H460
[54] = system: SNB-75
[55] = system: TK-10
[56] = system: OVCAR-3
[57] = system: SR
[58] = system: RPMI-8226

Measured: GI50

O=c1oc2cc(/N=C/c3ccc4c(c3)OCO4)ccc2c2ccccc12
> 100 µM: [19]
inactive: [1] > 100 µM | [2] > 100 µM | [3] > 100 µM | [4] 50.4 µM | [5] 51.9 µM | [6] 77.1 µM | [7] 56.8 µM | [8] 33.3 µM | [9] > 100 µM | [10] 49.8 µM | [11] > 100 µM | [12] > 100 µM | [13] > 100 µM | [14] 42.5 µM | [15] > 100 µM | [16] > 100 µM | [17] > 100 µM | [18] 50.9 µM | [20] 19.2 µM | [21] 92.9 µM | [22] 56.6 µM | [23] 61 µM | [24] > 100 µM | [25] 47 µM | [26] > 100 µM | [27] > 100 µM | [28] 43.1 µM | [29] 65 µM | [30] 58.6 µM | [31] 54.5 µM | [32] 3.66 µM | [33] 43.7 µM | [34] 46.3 µM | [35] > 100 µM | [36] 79.8 µM | [37] 55.8 µM | [38] 78.3 µM | [39] > 100 µM | [40] 36 µM | [41] 34.1 µM | [42] 77.4 µM | [43] 50.2 µM | [44] > 100 µM | [45] 58.1 µM | [46] 70 µM | [47] > 100 µM | [48] > 100 µM | [49] > 100 µM | [50] 97.9 µM | [51] 35 µM | [52] 76.6 µM | [53] 39.8 µM | [54] 15 µM | [55] 41.4 µM | [56] > 100 µM | [57] 25.5 µM

CC1=CP(=O)(c2c(C(C)C)cc(C(C)C)cc2C(C)C)CCC1Cl (stereo not given)
inactive: [1] 19.3 µM | [2] 14 µM | [3] 13.9 µM | [4] 14.1 µM | [5] 17.7 µM | [6] 15 µM | [7] 14.1 µM | [8] 6.7 µM | [9] 17.7 µM | [10] 15.9 µM | [11] 17.3 µM | [58] 13.3 µM | [12] 21.7 µM | [13] 13.7 µM | [14] 21.2 µM | [15] 19.1 µM | [16] 16.4 µM | [17] 13.6 µM | [18] 16.4 µM | [20] 14.7 µM | [21] 16.1 µM | [22] 14.9 µM | [23] 16.3 µM | [24] 13.4 µM | [25] 17.1 µM | [26] 16.6 µM | [27] 17.1 µM | [28] 14.8 µM | [29] 16.8 µM | [30] 12.4 µM | [31] 15.4 µM | [32] 16 µM | [33] 11.6 µM | [34] 20.1 µM | [35] 10.2 µM | [36] 18.8 µM | [37] 12 µM | [38] 15.4 µM | [39] 27.5 µM | [40] 17 µM | [41] 19.4 µM | [42] 15.3 µM | [43] 14.4 µM | [44] 18.6 µM | [45] 15.9 µM | [46] 13.9 µM | [47] 14.1 µM | [48] 19.6 µM | [49] 11.6 µM | [50] 21.6 µM | [51] 18.1 µM | [52] 16.6 µM | [53] 16 µM | [54] 14 µM | [55] 15.9 µM | [56] 10.1 µM
16 µM: [19]
active: [57] 0.769 µM
